Test results from patent US20110028717A1, “AZAINDOLE DERIVATIVE HAVING PGD2 RECEPTOR ANTAGONISTIC ACTIVITY” (priority 2005, published 2011).

Legend:
DP receptor [1] = target: T1, DP receptor (Homo sapiens, UniProt Q13258); test: cAMP assay with washed platelets (PGD2-stimulated cAMP, HTRF); format: cell-based; conditions: 100 nM PGD2, cAMP by HTRF, read-out: IC50 (50% DP-inhibitory concentration in the cAMP assay)
T1 construct: endogenous in cells; host or cells: washed platelets from peripheral blood of a healthy volunteer
T1 sequence (Q13258 1-359): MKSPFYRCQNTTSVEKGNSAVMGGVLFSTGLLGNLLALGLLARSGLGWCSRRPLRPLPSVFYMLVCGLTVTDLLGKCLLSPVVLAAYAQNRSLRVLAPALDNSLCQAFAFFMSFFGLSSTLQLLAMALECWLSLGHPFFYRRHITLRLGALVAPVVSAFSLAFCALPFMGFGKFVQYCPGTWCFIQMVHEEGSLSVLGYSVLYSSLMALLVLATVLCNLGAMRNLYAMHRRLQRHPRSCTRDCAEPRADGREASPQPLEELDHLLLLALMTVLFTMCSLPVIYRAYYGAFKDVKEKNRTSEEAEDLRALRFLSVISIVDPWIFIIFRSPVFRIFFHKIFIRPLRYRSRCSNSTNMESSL
Description: 30 ml of peripheral blood was collected from a healthy volunteer using a syringe containing one ninth amount of 3.8% sodium citrate for diagnosis. After being centrifuged at 180 g for 10 minutes at room temperature, a supernatant was collected and used as Platelet Rich Plasma (PRP). The resulting PRP was washed with wash buffer and centrifuged three times (Washed Platelet: WP) and platelets were counted by a microcell counter. WP was added to a plate in amount of 1.5×10^8/assay and the plate was treated with 3-isobutyl-1-methylxanthin (IBMX; 0.5 mM) for 5 minutes. A reaction was initiated by adding 100 nM of PGD2 5 min after an addition of a test compound. The reaction was terminated with an addition of 1N hydrochloric acid after 2 minutes and the cells were destructed using 12% triton X-100. An amount of cAMP in the supernatant was assayed by Homogeneous […] (HTRF)

DP receptor [2] = target: T1, DP receptor; test: Receptor binding assay, [3H]-PGD2, platelet membrane; conditions: [3H]-PGD2, human platelet membrane
Description: A prepared WP was homogenated and a membrane fraction was collected with high-speed centrifugation. A compound of the present invention or a reference compound A (No. IC-73 in WO 2003/097598) was added to the plate and [^3H]-PGD2 was also added. A platelet membrane, a protein concentration is 2 mg/mL, was added and mixed in the plate, and placed on ice for 2 hours. The reaction solution was transferred to a low protein-adsorptive filter and washed with a wash solution eight times using a cell harvester. After the final washing, water was removed sufficiently, and micoscinti was added. DP inhibitory activity was investigated by measuring [^3H] by using Micro Beta.

Brown Norway (BN) Rats = test: OVA asthma model of rat (hyperresponsive airway, infiltration of inflammatory cells, mucus secretion); format: in vivo; conditions: 10 mg/kg p.o. once a day for three days; for inhibition rate (%) mucus-secretion: mucin in airway lavage fluid vs control group; for inhibition rate (%) infiltration of inflammatory cells: total cell number in bronchoalveolar washings vs control group; for inhibition rate (%) increased hyperresponsive airway: vs control group, AUC of acetylcholine response
Description: Brown Norway (BN) Rats were sensitized by i.p. administration of 0.1 mg/mL of ovalbumin (OVA) and 1 mg of aluminum hydroxide gel. A solution of 1% OVA was aerosolized by ultrasonic nebulizer (NE-U 17) and the rats were subjected to inhalation exposure of the aerosol for 30 minutes in an exposing chamber 12, 19, 26 and 33 days after the sensitization. One hour before the 4th exposure of the antigen, compounds of the present invention were administered in a dose of 10 mg/kg p.o. once a day for three days consecutively. In a control group, 0.5% of methyl cellulose was administered in place of the compound of the present invention.
Under pentobarbital anesthesia (80 mg/kg, i.p.), acetylcholine (3.9, 7.8, 15.6, 31.3, 62.5, 125, 250 and 500 μg/kg) was injected to jugular vein of the rats successively from a lower dose at intervals of 5 minutes three days after the fourth exposure to the antigen, and immediate contractile reaction of airways (an increase of insufflation pressure) was measured by a modified method of Konnzett & Rössler. Inhibition rate of increased hyperresponsive airway against the control group was calculated based on area under curve (AUC) obtained from concentration-response curve of acetylcholine.
After the measurement of increased hyperresponsive airway was completed, bronchoalveoli of the rats were washed with 5 mL of saline three times. Total cell number in the washings was counted by a hemacytometer under light microscope, and inhibition rates of infiltration of inflammatory cells against the control group were calculated. Further, muchin in the airway lavage fluid was measured by ELIZA method using jacalin, a muchin-binding lectin, and the inhibition rates of mucus-secretion against the control group were calculated.

SMILES | IC50 (DP receptor [1]) [nM] | Ki (DP receptor [2]) [nM] | inhibition rate (%) mucus-secretion (Brown Norway (BN) Rats) [%] | inhibition rate (%) infiltration of inflammatory cells (Brown Norway (BN) Rats) [%] | inhibition rate (%) increased hyperresponsive airway (Brown Norway (BN) Rats) [%]
CC(C)Oc1ccc(S(=O)(=O)N2CCC(c3cn(CC(=O)O)c4nc(-c5ccccc5)ccc34)CC2)cc1 [Compound I-16] | 0.64 | – | – | – | –
CC(C)Oc1ccc(S(=O)(=O)N2CCC(c3cn(CC(=O)O)c4ncccc34)CC2)cc1 [Compound I-1] | 0.58 | 1 | 68 | 63 | 55
CC(C)Oc1ccc(S(=O)(=O)N2CCC(c3cn(CC(=O)O)c4nc(-c5ccccn5)ccc34)CC2)cc1 [Compound I-19] | 2.2 | – | – | – | –
CC(C)Oc1ccc(S(=O)(=O)N2CCC(c3cn(CC(=O)O)c4nc(-c5ccc(F)cc5)ccc34)CC2)cc1 [Compound I-17] | 0.88 | 0.25 | – | – | –
COc1ccc2c(C3CCN(S(=O)(=O)c4ccc(OC(C)C)cc4)CC3)cn(CC(=O)O)c2n1 [Compound I-14] | 0.33 | 0.61 | 88 | 68 | 84
CC(C)Oc1ccc(S(=O)(=O)N2CCC(c3cn(CC(=O)O)c4nc(Br)ccc34)CC2)cc1 [Compound I-13] | 0.51 | 0.85 | 44 | 62 | 58
CC[C@@H](C)Oc1ccc(S(=O)(=O)N2CCC(c3cn(CC(=O)O)c4ncccc34)CC2)cc1 [Compound I-6] | 0.93 | 1 | 77 | 60 | 69

Continued, in another order:

IC50 (DP receptor [1]) [nM] | Ki (DP receptor [2]) [nM] | SMILES | inhibition rate (%) mucus-secretion (Brown Norway (BN) Rats) [%] | inhibition rate (%) infiltration of inflammatory cells (Brown Norway (BN) Rats) [%] | inhibition rate (%) increased hyperresponsive airway (Brown Norway (BN) Rats) [%]
1.9 | 0.51 | CC(C)Oc1ccc(S(=O)(=O)N2CCC(c3cn(CC(=O)O)c4nc(NC(=O)OC(C)(C)C)ccc34)CC2)cc1 [Compound I-21] | – | – | –
1.1 | – | CC(C)Oc1ccc(S(=O)(=O)N2CCC(c3cn(CC(=O)O)c4nc(-c5ccoc5)ccc34)CC2)cc1 [Compound I-25] | – | – | –
0.64 | 0.48 | CC(C)Oc1ccc(S(=O)(=O)N2CCC(c3cn(CC(=O)O)c4nc(-c5nccs5)ccc34)CC2)cc1 [Compound I-20] | – | – | –
1.5 | – | CCOc1ccc2c(C3CCN(S(=O)(=O)c4ccc(OC(C)C)cc4)CC3)cn(CC(=O)O)c2n1 [Compound I-29] | – | – | –
1.7 | – | CC(C)Oc1ccc(S(=O)(=O)N2CCC(c3cn(CC(=O)O)c4nc(-c5ccco5)ccc34)CC2)cc1 [Compound I-26] | – | – | –
1.7 | – | CC(C)Oc1ccc(S(=O)(=O)N2CCC(c3cn(CC(=O)O)c4nc(OCc5ccccc5)ccc34)CC2)cc1 [Compound I-31] | – | – | –
